Test results from patent publication US20190167711A1, “METHODS FOR DIAGNOSIS AND TREATMENT OF ACUTE LYMPHOBLASTIC LEUKEMIA” (MOR RESEARCH APPLICATIONS LTD., priority 2014, published 2019).

What was measured:
Nalm-6 cells [1] = assay: Annexin V-FITC apoptosis assay in Nalm-6 cells; format: cell-based; conditions: NALM-6 cells, transient expression
From the text: Cells were stained with annexin V-fluorescein-5-isothiocyanate (FITC) conjugated antibody and propidium iodide (PI) using the Annexin V-FITC Apoptosis Detection Kit (ab14085, Abcam® Incorporated, Cambridge, Mass., USA) according to manufacturer's instructions (see, for example, https://www.abcam.com/ps/products/14/ab14085/documents/ab14085%20Annexin %20V%20FITC%20Apoptosis%20Detection%20Kit%20v4%20(website).pdf), and read on the flow cytometer. Annexin V Apoptosis Detection Kit is based on the observation that soon after initiating apoptosis, cells translocate the membrane phosphatidylserine (PS) from the inner face of the plasma membrane to the cell surface. Once on the cell surface, PS can be easily detected by staining with a fluorescent conjugate (e.g., FITC) of Annexin V, a protein that has a high affinity for PS. The one-step staining procedure takes only 10 minutes. When performing both Annexin V-FITC and PI staining, it is possible to differentiate apoptosis vs necrosis.
(§1) To measure the effect of NAD^+ depletion following FK866 treatment of Nalm-6 cells, apoptosis and viability were measured as described in Materials and Methods. Nalm-6 cells were treated for 48 hours with 1 nM FK866, and then apoptosis was measured using FACS.

NAMPT = assay: Western blot of NAMPT in transfected NALM-6 cells; format: cell-based; conditions: NALM-6 transient
From the text: (§2) Protein was extracted from NALM-6 cell line using Qproteome™ lysis buffer (Qiagen, Hilden, Germany). The membrane was then probed with one or more of the following antibodies: anti-disintegrin and metalloproteinase domain-containing protein 10 (ADAM10) (1:1000) (Abcam; Cambridge, UK) (see Example 9); anti-chemokine C-X-C motif 16 (CXCL16) (1:1000); anti-NAMPT (1:1000); and anti-GAPDH (1:5000) (Santa Crus Biotechnology, Santa Crus, Calif., USA) (see Examples 5 and 9). The secondary antibodies were goat anti-mouse and goat anti-rabbit (1:10,000) (Sigma®, Saint Louis, Mo., USA), for each antigen according to the manufacturer's instructions. […]
(§3) Intensity of the protein band was measured using an in-house program. […]
(§4) Possible miR-451 targets were evaluated using several open access software programs (e.g., Targetscan, PicTar, miRanda, miRDB). […] In the first screening, the suppression of ADAM10, CXCL16 and NAMPT protein level was analyzed in NALM-6 cells transiently expressing miR-451 mimic (SEQ ID NO: 2) and in cells transiently expressing scrambled-miR (universal sequence; negative control) by Western blot as described in Materials and Methods. […]

Nalm-6 cells [2] = assay: Tumor growth of transfected Nalm-6 cells injected s.c. into NOD/SCID mice; format: in vivo
From the text: As described herein, decreased expression of miR-451 in comparison to a control level can serve as a prognostic factor for ALL relapse risk, as low expression of miR-451 at first diagnosis predicts worse outcome. […] Scrambled miRNA-transfected cells served as negative control (Nalm-6/miR-NC). Quantitative reverse transcription PCR (RT-qPCR) was used to confirm miR-451 expression in the transfected cells.
To further study the putative tumor-suppressive function of hsa-miR-451 in vivo, 10^7 viable Nalm-6 cells either untransfected, transfected in vitro with miR-451 mimic, or transfected with scrambled miR (control), were injected sub-cutaneously (s.c.) into the right flanks of 6-week-old female NOD/SCID mice. […] On day 26, the median tumor volume in the scrambled control mice and the miR-451 mimic mice were 204.69 mm^3 (SE=63.96) and 23.32 mm^3 (SE=13.12), respectively (p=0.019). At the end of the experiment, mice were sacrificed, and the tumors were weighted. The median tumor weight in the scrambled control mice and the miR-451 mimic mice were 0.0966 gr (SE=0.040) and 0.0159 gr (SE=0.0009), respectively (p=0.046) (FIG. 4C).

ADAM10 = assay: Western blot of ADAM10 in transfected NALM-6 cells; format: cell-based; conditions: NALM-6 transient
From the text: as §2, §3, §4

Nalm-6 cells [3] = assay: XTT cell viability assay in Nalm-6 cells; format: cell-based; conditions: NALM-6 cells, transient expression
Procedure: Cell viability assay was performed using the Cell Proliferation Kit comprising the second-generation tetrazolium dye, XTT. Viable cells with active metabolism convert XTT into an orange colored reduction product, whereas dead cells lose the ability to reduce XTT, thus, color formation serves as a useful and convenient marker of only the viable cells.
The XTT kit was applied to NALM6 transfected cells according to the manufacturer's protocol (Biological Industries, Kibbutz Beit Haemek, Israel). Cells were incubated for 3 hours with the XTT reagent and quantity of reduced XTT (directly proportional to the number of viable cells) was assessed by recording changes in absorbance as measured on a microplate reader at 450-500 nm optical density (OD).
as §1

With “miR-451 mimic: a dsmiR-451 designed to copy or mimic the functionality of mature endogenous miR-451 upon transfection (AAACCGUUACCAUUACUGAGUU; double-stranded mimic, further chemistry not given here; listed as Homo sapiens)” the “effect on apoptosis rate” value (Nalm-6 cells [1]) was “No effect”, the “NAMPT protein expression levels compared to scrambled-miR” value (NAMPT) was “reduced” and the “tumor growth vs scrambled miR control cells” value (Nalm-6 cells [2]; after 20 days) was “significantly decreased tumor growth”. The median tumor volume (Nalm-6 cells [2]; day 26, 10^7 transfected Nalm-6 cells s.c., female NOD/SCID mice) was 23.32 mm^3, the median tumor weight (Nalm-6 cells [2]; end of the experiment) was 0.0159 gr and the “ADAM10 protein level compared to scrambled-miR” value (ADAM10) was “only NAMPT protein expression levels were reduced”. For the same substance, the effect on viability (Nalm-6 cells [3]) was “No effect”.
